Reference: PMC5464773 (eLife, 2017)

Columns and labels:
[1] = test system: BCR-ABL-expressing B-lineage acute lymphoblastic leukemia cells dependent on Bcl-xL; test: BH3 profiling, mitochondrial depolarization (JC-1) in permeabilized cells; assay type: cell-based; conditions: BH3 profiling fits Bcl-xL, sigmoidal dose-response (variable slope), fit ambiguous
Protocol: Cell line identities were confirmed by STR profiling.
Peptides were titrated by serial dilution in MEB buffer (150 mM Mannitol, 10 mM HEPES-KOH pH 7.5, 50 mM KCl, 0.02 mM EGTA, 0.02 mM EDTA, 0.1% BSA and 5 mM Succinate) containing 20 μg/mL oligomycin, 50 μg/mL digitonin, 2 μM JC-1 and 10 mM 2-mercaptoethanol in 384-well plates. Controls for no depolarization (1% DMSO) and complete depolarization with the mitochondrial oxidative phosphorylation uncoupler FCCP (20 μM) were included for data normalization. […] 15 μL of cell suspension was added to each well containing 15 μL of treatment solution. […] To produce percent depolarization, the area under the resultant curve was calculated and normalized to the assay controls. Peptide titration curves were fit to sigmoidal dose-response curves using Graphpad PRISM seven to obtain EC50 values.

[2] = test system: BCR-ABL-expressing B-lineage acute lymphoblastic leukemia cells dependent on Bfl-1; conditions: for HillSlope (best-fit value) / Bottom (best-fit value) / Top (best-fit value) / LogEC50 (best-fit value): iBH3 fits Bfl-1, sigmoidal dose-response (variable slope); for Bottom (best-fit value) / Top (best-fit value): fit of 3 replicates; for cytochrome c release pattern in iBH3: low concentrations, highly primed cells of known anti-apoptotic protein dependency; for LogEC50 (best-fit value): log of EC50, x axis Log [Peptide M]
Protocol: (§1) As an additional test for on-pathway activity, we measured cytochrome c release in the same engineered cell lines in response to peptide treatment, using iBH3 profiling ([Ryan et al., 2016]).
(§2) The creation and characterization of the BCR-ABL-expressing B-lineage acute lymphoblastic leukemia suspension cell lines with engineered dependencies on human versions of anti-apoptotic genes is detailed in [Koss et al. (2016)]). Cells were grown in RPMI (Life Technologies, Carlsbad, CA) with 10% fetal bovine serum, 2 mM L-glutamine, 10 mL/L 100x Pen/Strep (Life Technologies # 15140122), 25 mM HEPES and 10 mL/L 100x NEAA (Life Technologies, 11140050). The adherent cell lines PC-3 (RRID: CVCL_0035) and SF295 (RRID: CVCL_1690) are from the NCI60 panel ([Lorenzi et al., 2009]) and were grown in RPMI (Life Technologies) with 10% fetal bovine serum, 2 mM L-glutamine and 10 mL/L 100x Pen/Strep (Life Technologies # 15140122 ). Cell line identities were confirmed by STR profiling. The Lookout Mycoplasma PCR detection kit (Sigma) was used to detect mycoplasma infection.
(§3) Cells were suspended in MEB buffer (150 mM mannitol, 50 mM KCl, 10 mM HEPES, 5 mM succinic acid, 20 μM EGTA, 20 μM EDTA, 0.1% BSA, final pH 7.4) at 0.5*10^6 cells/mL (adherent lines) or 2 *10^6 cells/mL (suspension lines). Cell suspension was added to a 384 non-binding well plate (10 μL/well) containing peptides at 2X final concentration in MEB with 20 μg/mL digitonin. Plates were incubated at 25°C for 1 hr. To terminate exposure, 10 μL of 4% formaldehyde in PBS was added to each well, plates were incubated for 10 min before addition of 10 μL N2 buffer (1.7M Tris, 1.25M glycine, pH 9.1) for 5 min. 10 μL of staining buffer (2% Tween20, 10% BSA, PBS) containing 10 μg/mL Hoechst 33342 and 1.25 μg/mL anti-cytochrome c Alexa647 conjugate (BioLegend clone 6H2.B4) was added to each well before sealing the plate and shaking overnight. The median fluorescence of the cytochrome c channel of Hoechst positive singlets was recorded by an IntelliCyt iQue Screener Plus. Cytochrome c release was determined by normalizing the median fluorescence intensity (MFI) data to positive control wells (Alamethicin) and negative control wells (DMSO) as follows: Cytochromecrelease=1−(MFIsample−MFIAlamethicin)/(MFIDMSO−MFIAlamethicin)

[3] = test system: BCR-ABL-expressing B-lineage acute lymphoblastic leukemia cells dependent on Mcl-1; conditions: iBH3 fits Mcl-1, sigmoidal dose-response (variable slope); for Bottom (best-fit value) / Top (best-fit value): fit of 3 replicates; for LogEC50 (best-fit value): log of EC50, x axis Log [Peptide M]
Protocol: as §1, §2, §3

Bfl-1 [4] = molecular target: T1, Bfl-1 (Homo sapiens, UniProt Q16548); test: Competition fluorescence polarization (anisotropy) with fluoresceinated BIM; assay type: binding; conditions: competition FP source data; for Ki: mean of three replicates
T1 construct: c-myc
T1 sequence (Q16548 1-175): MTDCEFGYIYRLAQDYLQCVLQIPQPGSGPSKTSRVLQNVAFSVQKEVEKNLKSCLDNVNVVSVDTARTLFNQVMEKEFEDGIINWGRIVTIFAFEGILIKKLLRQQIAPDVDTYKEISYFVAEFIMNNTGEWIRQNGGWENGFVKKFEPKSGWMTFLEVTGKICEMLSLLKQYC
Protocol: (§4) Plates were mixed at 23°C for 3 hr. Plates were read again at 24 to check equilibration. Experiments were done in at least triplicate.

Bfl-1 [5] = test: as above; assay type: binding, human; conditions: ratio of Ki values from competition FP
Protocol: as §4

Row | Substance | Bottom (best-fit value) ([1]; constraint Bottom < 5) | Top (best-fit value) ([1]; constraint Top > 78) | HillSlope (best-fit value) [1] | LogEC50 (best-fit value) ([1]; x = Log [Peptide] M) | HillSlope (best-fit value) [2] | Bottom (best-fit value) [2] | Top (best-fit value) [2] | cytochrome c release pattern in iBH3 [2] | HillSlope (best-fit value) [3] | Bottom (best-fit value) [3] | Top (best-fit value) [3] | Ki (Bfl-1 [4]) | Ki (M) Bfl-1 (Bfl-1 [4]; replicate 1) | Ki (M) Bfl-1 (Bfl-1 [4]; replicate 2) | Ki (M) Bfl-1 (Bfl-1 [4]; replicate 3) | LogEC50 (best-fit value) [2] | LogEC50 (best-fit value) [3] | specificity for Bfl-1 relative to Bcl-xL, Bcl-2, Bcl-w and Mcl-1 (Bfl-1 [5])
1 | Ac-QWIREIAAGLRRFADILNAQVER-NH2 [FS3] | ~ 5 | 97.17 | ~ 8.841 | ~ -4.964 | 0.832 | ~ -46.09 | 0.9862 | selectively induced cytochrome c release only in Bfl-1 dependent cell lines | 4.529 | 0.1359 | 0.9781 | – | – | – | – | – | – | –
2 | Ac-QWVREIAAGLRRAADDVNAQVER-NH2 [FS2] | – | – | – | – | 0.6008 | ~ -2.146 | 1.01 | selectively induced cytochrome c release only in Bfl-1 dependent cell lines | 1.725 | 0.1056 | 1.316 | 21.4 nM | 2.51e-08 M | 2.52e-08 M | 1.4e-08 M | ~ -9.301 | -4.058 | –
3 | Ac-QWVREIAAGLRLAADNVNAQLER-NH2 [FS1] | – | – | – | – | 2.245 | 0.8808 | 0.9982 | selectively induced cytochrome c release only in Bfl-1 dependent cell lines | 1.721 | 0.09874 | 0.9023 | 14.9 nM | 1.51e-08 M | 1.72e-08 M | 1.22e-08 M | -6.521 | -4.595 | at least 150 fold
